For 28 molecules, IC50 results are on record in patent US20240101570A1 (AMGEN INC., priority 2020, published 2024).

The test system of one assay is HCT116 MTAP null cells. As to the kind of experiment: HCT116 MTAP null cell proliferation / viability (CellTiter-Glo, 6 days). In kind it is cell-based. As to conditions: HCT116-MTAP null, 144 h, HCT116 MTAP null cells, 6 days, CellTiter-Glo; read-out: HCT-116 MTAP null IC50. In a few lines: (§1)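 Viability read by CellTiter-Glo after 6-day compound exposure of MTAP-null and wild-type HCT116 cells grown in RPMI 1640 with 10% FBS. Dosing used 1:3 steps from 1 or 10 μM (8-9 points) or 1:2 steps from 10 or 50 μM (22 points); IC50 taken where fitted curve crosses 50% of control.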
(In ATP-based viability assays light output follows the ATP content of the culture.)

A further assay deals with HCT116 WT cells. As to the kind of experiment: HCT116 WT cell proliferation / viability (CellTiter-Glo, 6 days). Particulars: Homo sapiens, HCT-116, 144 h, HCT116 WT cells, 6 days, CellTiter-Glo; read-out: HCT-116 WT IC50. In kind it is cell-based. Put shortly:
as §1

As a reminder, the IC50 is the concentration needed to halve the response being measured. Take `C[C@H](c1ncc(F)cc1F)N(C)C(=O)c1cc2c(cc1F)nc(N)c1cnn(C)c12` (single isomer, unassigned) [Example 853]: the IC50 in the assay on HCT116 MTAP null cells was 167 nM; in the assay on HCT116 WT cells, 14400 nM.
With `C[C@H](c1ncccn1)N(Cc1ccc(C(F)(F)F)cn1)C(=O)c1ccc2nc(N)c3ccccc3c2c1` [Example 629, 6-amino-N-((1R)-1-(2-pyrimidinyl)ethyl)-N-((5-(trifluoromethyl)-2-pyridinyl)methyl)-2-phenanthridinecarboxamide], the IC50 in the assay on HCT116 MTAP null cells amounted to 16 nM; with HCT116 WT cells, 398 nM.
On the same counts, the results for `COC(=O)N1CCN(c2ccc(CN(C)C(=O)c3ccc4nc(N)c5c(c4c3)COC5)nc2)CC1` [Example 413, methyl 4-(6-((((4-amino-1,3-dihydrofuro[3,4-c]quinolin-8-yl)carbonyl)(methyl)amino)methyl)-3-pyridinyl)-1-piperazinecarboxylate] are 870 nM and 20300 nM.
As to `COCC(C)(C)N(Cc1ccc(Br)nn1)C(=O)c1ccc2nc(N)c3c(c2c1)COC3` [Example 644, 4-amino-N-((6-bromo-3-pyridazinyl)methyl)-N-(1-methoxy-2-methyl-2-propanyl)-1,3-dihydrofuro[3,4-c]quinoline-8-carboxamide], the half-maximal inhibitory concentration (IC50) in the assay on HCT116 MTAP null cells was 2790 nM; in the assay with HCT116 WT cells, greater than 10000 nM.
For `CC[C@@H](c1ccc(C(F)(F)F)cn1)N(C)C(=O)c1cc2c3c(c(N)nc2cn1)COC3` (single isomer, unassigned) [Example 850] the same measures were 8340 nM and greater than 50000 nM.
On the same counts, the results for `CN(Cc1ccc(C2CC2)cn1)C(=O)c1cc2c3c(c(N)nc2cc1Cl)COC3` [Example 478, 4-amino-7-chloro-N-((5-cyclopropyl-2-pyridinyl)methyl)-N-methyl-1,3-dihydrofuro[3,4-c]quinoline-8-carboxamide] are 82 nM and 9580 nM.
On the same counts, the results for `CC(C)N(Cc1cnc(C(F)(F)F)cn1)C(=O)c1ccc2nc(N)c3c(c2c1)CO[C@@H]3C` [Example 434, (3R)-4-amino-3-methyl-N-(2-propanyl)-N-((5-(trifluoromethyl)-2-pyrazinyl)methyl)-1,3-dihydrofuro[3,4-c]quinoline-8-carboxamide] are 584 nM and 23900 nM.
Consider `C[C@H]1OCc2c1c(N)nc1cnc(C(=O)N(Cc3ccc(C4CC4)cn3)C3CC3)cc21` [Example 416, (3R)-4-amino-N-cyclopropyl-N-((5-cyclopropyl-2-pyridinyl)methyl)-3-methyl-1,3-dihydrofuro[3,4-c][1,7]naphthyridine-8-carboxamide], for which the IC50 in the assay on HCT116 MTAP null cells came out at 62 nM; in the assay on HCT116 WT cells it was 8230 nM.
On the same counts, the results for `C[C@H]1OCc2c1c(N)nc1ccc(C(=O)N(Cc3ccc(C#N)cn3)C3CC3)cc21` [Example 355, (3R)-4-amino-N-((5-cyano-2-pyridinyl)methyl)-N-cyclopropyl-3-methyl-1,3-dihydrofuro[3,4-c]quinoline-8-carboxamide] are 171 nM and 19000 nM.
On the same counts, the results for `CN(Cc1ccc(C(F)(F)F)cc1)C(=O)c1ccc2nc(N)c3cnn(C)c3c2c1` [Example 543, 4-amino-N,1-dimethyl-N-(4-(trifluoromethyl)benzyl)-1H-pyrazolo[4,3-c]quinoline-8-carboxamide] are 57 nM and 2010 nM.
On the same counts, the results for `CC(C)N(Cc1ccc(C2CC2)cn1)C(=O)c1cc2c(cc1F)nc(N)c1c2cnn1C` [Example 522, 4-amino-N-((5-cyclopropyl-2-pyridinyl)methyl)-7-fluoro-3-methyl-N-(2-propanyl)-3H-pyrazolo[3,4-c]quinoline-8-carboxamide] are 14 nM and 380 nM.
In the case of `CN(Cc1ccc(-c2ccc(C(F)(F)F)cc2)nn1)C(=O)c1ccc2nc(N)c3cnn(C)c3c2c1` [Example 530, 4-amino-N,1-dimethyl-N-((6-(4-(trifluoromethyl)phenyl)-3-pyridazinyl)methyl)-1H-pyrazolo[4,3-c]quinoline-8-carboxamide], the results for the 50% inhibitory concentration (IC50) with HCT116 MTAP null cells and with HCT116 WT cells were 165 nM and 6560 nM, respectively.
On the same counts, the results for `CC(C)N(Cc1ccc(C2CC2)cn1)C(=O)c1ccc2nc(N)c3c(c2c1)COC3` [Example 364, 4-amino-N-((5-cyclopropyl-2-pyridinyl)methyl)-N-(2-propanyl)-1,3-dihydrofuro[3,4-c]quinoline-8-carboxamide] are 58 nM and 1760 nM.
For `CCN(Cc1ccc(C(F)(F)F)nn1)C(=O)c1cc2c3c(c(N)nc2cn1)COC3` [Example 696, 4-amino-N-ethyl-N-((6-(trifluoromethyl)-3-pyridazinyl)methyl)-1,3-dihydrofuro[3,4-c][1,7]naphthyridine-8-carboxamide], the IC50 in the assay on HCT116 MTAP null cells was 261 nM; with HCT116 WT cells, greater than 10000 nM.
For the molecule `C[C@H](c1ncccn1)N(Cc1cc2c(cn1)OCCC2)C(=O)c1ccc2nc(N)c3c(c2c1)COC3` [Example 469, 4-amino-N-(3,4-dihydro-2H-pyrano [2,3-c]pyridin-6-ylmethyl)-N-((1R)-1-(2-pyrimidinyl)ethyl)-1,3-dihydrofuro[3,4-c]quinoline-8-carboxamide], the IC50 in the assay with HCT116 MTAP null cells turned out to be 25 nM; in the assay with HCT116 WT cells, 550 nM.
On to `C[C@H]1OCc2c1c(N)nc1cnc(C(=O)N(Cc3ccc(C(F)(F)F)nn3)C3CCC3)cc21` (single isomer, unassigned) [Example 830], for which the IC50 stood at 80 nM in the assay with HCT116 MTAP null cells and 2970 nM in the assay with HCT116 WT cells.
On the same counts, the results for `Nc1nc2cc(Cl)c(C(=O)N(Cc3ccc(C(F)(F)F)nn3)C3CCC3)cc2c2c1COC2` [Example 505, 4-amino-7-chloro-N-cyclobutyl-N-((6-(trifluoromethyl)-3-pyridazinyl)methyl)-1,3-dihydrofuro[3,4-c]quinoline-8-carboxamide] are 22 nM and 662 nM.
On the same counts, the results for `CCN(C(=O)c1cc2c3c(c(N)nc2cc1Cl)COC3)[C@H](C)c1ccc(C(F)(F)F)cn1` [Example 738, 4-amino-7-chloro-N-ethyl-N-((1R)-1-(5-(trifluoromethyl)-2-pyridinyl)ethyl)-1,3-dihydrofuro[3,4-c]quinoline-8-carboxamide] are 13 nM and 430 nM.
For the molecule `CC1OCc2c1c(N)nc1ccc(C(=O)N(Cc3ccc(C(F)(F)F)cn3)[C@H]3[C@@H]4COC[C@@H]43)cc21` (stereo partly drawn) [Example 900, 4-amino-N-((1R,5S,6r)-3-oxabicyclo[3.1.0]hexan-6-yl)-3-methyl-N-((5-(trifluoromethyl)pyridin-2-yl)methyl)-1,3-dihydrofuro[3,4-c]quinoline-8-carboxamide], the 50% inhibitory concentration (IC50) is 290 nM in the assay on HCT116 MTAP null cells and greater than 10000 nM in the assay on HCT116 WT cells.
For `CC(C)N(Cc1ccc(C(F)(F)F)cn1)C(=O)c1ccc2nc(N)c3ncncc3c2c1` [Example 755, 5-amino-N-(2-propanyl)-N-((5-(trifluoromethyl)-2-pyridinyl)methyl)pyrimido[4,5-c]quinoline-9-carboxamide] the same measures were 892 nM and 6420 nM.
For `CO[C@H]1CCOC[C@@H]1N(Cc1ccc(C(F)(F)F)cn1)C(=O)c1ccc2nc(N)c3c(c2c1)COC3` (single isomer, unassigned) [Example 587] the same measures were 76 nM and 1710 nM.
For `Cn1ncc2c3cc(C(=O)N(Cc4ccc(OCC(F)(F)F)nn4)CC4CC4)c(F)cc3nc(N)c21` [Example 817, 4-amino-N-(cyclopropylmethyl)-7-fluoro-3-methyl-N-((6-(2,2,2-trifluoroethoxy)-3-pyridazinyl)methyl)-3H-pyrazolo[3,4-c]quinoline-8-carboxamide] the same measures were 28 nM and 689 nM.
Consider `Cc1cc2nc(N)c3cnn(C)c3c2cc1C(=O)N(C)[C@@H](C)c1ccc(F)cn1` (single isomer, unassigned) [Example 591], for which the concentration for half-maximal inhibition (IC50) stood at 563 nM in the assay with HCT116 MTAP null cells and 32100 nM in the assay on HCT116 WT cells.
Regarding `CCN(C(=O)c1cc2c3c(c(N)nc2cn1)COC3)[C@@H](c1ccc(C(F)(F)F)nn1)C1CC1` [Example 767, 4-amino-N-((R)-cyclopropyl(6-(trifluoromethyl)-3-pyridazinyl)methyl)-N-ethyl-1,3-dihydrofuro[3,4-c][1,7]naphthyridine-8-carboxamide], the results for the IC50 in the assay with HCT116 MTAP null cells and with HCT116 WT cells were 2270 nM and greater than 50000 nM, respectively.
On the same counts, the results for `Nc1nc2cnc(C(=O)N(Cc3ccc(C(F)(F)F)nn3)C3CC3)cc2c2c1COC2` [Example 382, 4-amino-N-cyclopropyl-N-((6-(trifluoromethyl)-3-pyridazinyl)methyl)-1,3-dihydrofuro[3,4-c][1,7]naphthyridine-8-carboxamide] are 1160 nM and 22800 nM.
For the molecule `Cn1ncc2c(N)nc3cc(C(F)(F)F)c(C(=O)N(Cc4ccc(C(F)(F)F)cn4)C4CC4)cc3c21` [Example 812, 4-amino-N-cyclopropyl-1-methyl-7-(trifluoromethyl)-N-((5-(trifluoromethyl)-2-pyridinyl)methyl)-1H-pyrazolo[4,3-c]quinoline-8-carboxamide], the IC50 stood at 237 nM in the assay with HCT116 MTAP null cells and 14100 nM in the assay on HCT116 WT cells.
With `CN(Cc1ccc(F)cn1)C(=O)c1cc2c(cc1F)nc(N)c1cnn(C)c12` [Example 770, 4-amino-7-fluoro-N-((5-fluoro-2-pyridinyl)methyl)-N,1-dimethyl-1H-pyrazolo[4,3-c]quinoline-8-carboxamide], the IC50 in the assay on HCT116 MTAP null cells was found to be 253 nM; with HCT116 WT cells, 19400 nM.
On the same counts, the results for `C[C@H]1OCc2c1c(N)nc1cnc(C(=O)N(Cc3ccc(C(F)(F)F)cn3)CC3CC3)cc21` [Example 396, (3R)-4-amino-N-(cyclopropylmethyl)-3-methyl-N-((5-(trifluoromethyl)-2-pyridinyl)methyl)-1,3-dihydrofuro[3,4-c][1,7]naphthyridine-8-carboxamide] are 20 nM and 629 nM.
